How the values were obtained:
[1] = Cytotoxicity against human LOXIMVI cells assessed as growth inhibition at 10 uM after 48 hrs by SRB assay relative to control; format: functional; conditions: LOX IMVI, read-out: GI
[2] = Cytotoxicity against human MDA-MB-231 cells assessed as growth inhibition at 10 uM after 48 hrs by SRB assay relative to control; format: functional; conditions: MDA-MB-231, 48 h, read-out: GI
[3] = Cytotoxicity against human HOP62 cells assessed as growth inhibition at 10 uM after 48 hrs by SRB assay relative to control; format: functional; conditions: HOP-62, 48 h, read-out: GI
[4] = organism: Ovis aries; assay: Inhibition of sheep brain tubulin polymerization at 100 uM by DAPI staining-based fluorimetric method relative to control
[5] = Cytotoxicity against human A498 cells assessed as growth inhibition at 10 uM after 48 hrs by SRB assay relative to control; format: functional; conditions: A498, 48 h, read-out: GI
[6] = Cytotoxicity against human NCI-H460 cells assessed as growth inhibition at 10 uM after 48 hrs by SRB assay relative to control; format: functional; conditions: NCI-H460, 48 h, read-out: GI
[7] = Cytotoxicity against human ACHN cells assessed as growth inhibition at 10 uM after 48 hrs by SRB assay relative to control; format: functional; conditions: read-out: GI
[8] = Cytotoxicity against human 786-0 cells assessed as growth inhibition at 10 uM after 48 hrs by SRB assay relative to control; format: functional; conditions: 786-0, 48 h, read-out: GI
[9] = Cytotoxicity against human NCI-H322M cells assessed as growth inhibition at 10 uM after 48 hrs by SRB assay relative to control; format: functional; conditions: read-out: GI
[10] = Cytotoxicity against human HCT15 cells assessed as growth inhibition at 10 uM after 48 hrs by SRB assay relative to control; format: functional; conditions: HCT-15, 48 h, read-out: GI
[11] = Cytotoxicity against human M14 cells assessed as growth inhibition at 10 uM after 48 hrs by SRB assay relative to control; format: functional; conditions: M14, 48 h, read-out: GI
[12] = Cytotoxicity against human OVCAR3 cells assessed as growth inhibition at 10 uM after 48 hrs by SRB assay relative to control; format: functional; conditions: OVCAR-3, 48 h, read-out: GI
[13] = Cytotoxicity against human UO31 cells assessed as growth inhibition at 10 uM after 48 hrs by SRB assay relative to control; format: functional; conditions: UO-31, 48 h, read-out: GI
[14] = Cytotoxicity against human T47D cells assessed as growth inhibition at 10 uM after 48 hrs by SRB assay relative to control; format: functional; conditions: read-out: GI
[15] = Cytotoxicity against human SF268 cells assessed as growth inhibition at 10 uM after 48 hrs by SRB assay relative to control; format: functional; conditions: SF-268, 48 h, read-out: GI
[16] = Cytotoxicity against human SNB75 cells assessed as growth inhibition at 10 uM after 48 hrs by SRB assay relative to control; format: functional; conditions: SNB-75, 48 h, read-out: GI
[17] = Cytotoxicity against human COLO205 cells assessed as growth inhibition at 10 uM after 48 hrs by SRB assay relative to control; format: functional; conditions: COLO 205, 48 h, read-out: GI
[18] = Cytotoxicity against human SF295 cells assessed as growth inhibition at 10 uM after 48 hrs by SRB assay relative to control; format: functional; conditions: SF-295, 48 h, read-out: GI
[19] = Cytotoxicity against human HL-60(TB) cells assessed as growth inhibition at 10 uM after 48 hrs by SRB assay relative to control; format: functional; conditions: HL-60, 48 h, read-out: GI
[20] = Cytotoxicity against human RXF393 cells assessed as growth inhibition at 10 uM after 48 hrs by SRB assay relative to control; format: functional; conditions: RXF 393, 48 h, read-out: GI
[21] = Cytotoxicity against human BT549 cells assessed as growth inhibition at 10 uM after 48 hrs by SRB assay relative to control; format: functional; conditions: BT-549, 48 h, read-out: GI
[22] = Cytotoxicity against human A549 cells assessed as growth inhibition at 10 uM after 48 hrs by SRB assay relative to control; format: functional; conditions: A549, 48 h, read-out: GI
[23] = Cytotoxicity against human OVCAR5 cells assessed as growth inhibition at 10 uM after 48 hrs by SRB assay relative to control; format: functional; conditions: OVCAR-5, 48 h, read-out: GI
[24] = Cytotoxicity against human OVCAR4 cells assessed as growth inhibition at 10 uM after 48 hrs by SRB assay relative to control; format: functional; conditions: OVCAR-4, 48 h, read-out: GI
[25] = Cytotoxicity against human SW620 cells assessed as growth inhibition at 10 uM after 48 hrs by SRB assay relative to control; format: functional; conditions: SW-620, 48 h, read-out: GI
[26] = Cytotoxicity against human TK10 cells assessed as growth inhibition at 10 uM after 48 hrs by SRB assay relative to control; format: functional; conditions: TK-10, 48 h, read-out: GI
[27] = Cytotoxicity against human CCRF-CEM cells assessed as growth inhibition at 10 uM after 48 hrs by SRB assay relative to control; format: functional; conditions: read-out: GI
[28] = Cytotoxicity against human EKVX cells assessed as growth inhibition at 10 uM after 48 hrs by SRB assay relative to control; format: functional; conditions: read-out: GI
[29] = Cytotoxicity against human MCF7 cells assessed as growth inhibition at 10 uM after 48 hrs by SRB assay relative to control; format: functional; conditions: MCF7, 48 h, read-out: GI
[30] = Cytotoxicity against human NCI-H23 cells assessed as growth inhibition at 10 uM after 48 hrs by SRB assay relative to control; format: functional; conditions: NCI-H23, 48 h, read-out: GI
[31] = Cytotoxicity against human HT-29 cells assessed as growth inhibition at 10 uM after 48 hrs by SRB assay relative to control; format: functional; conditions: HT-29, 48 h, read-out: GI
[32] = Cytotoxicity against human HCT116 cells assessed as growth inhibition at 10 uM after 48 hrs by SRB assay relative to control; format: functional; conditions: HCT-116, 48 h, read-out: GI
[33] = Cytotoxicity against human MDA-MB-435 cells assessed as growth inhibition at 10 uM after 48 hrs by SRB assay relative to control; format: functional; conditions: MDA-MB-435, 48 h, read-out: GI
[34] = Cytotoxicity against human SF539 cells assessed as growth inhibition at 10 uM after 48 hrs by SRB assay relative to control; format: functional; conditions: SF-539, 48 h, read-out: GI
[35] = Cytotoxicity against human U251 cells assessed as growth inhibition at 10 uM after 48 hrs by SRB assay relative to control; format: functional; conditions: U-251, 48 h, read-out: GI
[36] = Cytotoxicity against human Hs 578T cells assessed as growth inhibition at 10 uM after 48 hrs by SRB assay relative to control; format: functional; conditions: read-out: GI
[37] = Cytotoxicity against human KM12 cells assessed as growth inhibition at 10 uM after 48 hrs by SRB assay relative to control; format: functional; conditions: KM12, 48 h, read-out: GI
[38] = Cytotoxicity against human NCI-H522 cells assessed as growth inhibition at 10 uM after 48 hrs by SRB assay relative to control; format: functional; conditions: NCI-H522, 48 h, read-out: GI

SMILES	inhibition of growth at 10 µM [1] [%]	inhibition of growth at 10 µM [2] [%]	inhibition of growth at 10 µM [3] [%]	inhibition [4] [%]	inhibition of growth at 10 µM [6] [%]	inhibition of growth at 10 µM [7] [%]	inhibition of growth at 10 µM [8] [%]	inhibition of growth at 10 µM [9] [%]	inhibition of growth at 10 µM [10] [%]	inhibition of growth at 10 µM [11] [%]	inhibition of growth at 10 µM [12] [%]	inhibition of growth at 10 µM [13] [%]	inhibition of growth at 10 µM [14] [%]	inhibition of growth at 10 µM [15] [%]	inhibition of growth at 10 µM [16] [%]	inhibition of growth at 10 µM [17] [%]	inhibition of growth at 10 µM [18] [%]	inhibition of growth at 10 µM [19] [%]	inhibition of growth at 10 µM [20] [%]	inhibition of growth at 10 µM [21] [%]	other results
COc1ccc(CN2c3ccccc3CCc3ccccc32)cc1F	50	83	63	58	93	64	66	42	75	100	100	57	53	61	77	100	88	100	82	46	inhibition of growth at 10 µM [5]: 100%; inhibition of growth at 10 µM [22]: 79%; inhibition of growth at 10 µM [23]: 59%; inhibition of growth at 10 µM [24]: 58%; inhibition of growth at 10 µM [25]: 79%; inhibition of growth at 10 µM [26]: 37%; inhibition of growth at 10 µM [27]: 96%; inhibition of growth at 10 µM [28]: 59%; inhibition of growth at 10 µM [29]: 80%; inhibition of growth at 10 µM [30]: 61%; inhibition of growth at 10 µM [31]: 98%; inhibition of growth at 10 µM [32]: 98%; inhibition of growth at 10 µM [33]: 100%; inhibition of growth at 10 µM [34]: 100%; inhibition of growth at 10 µM [35]: 79%; inhibition of growth at 10 µM [36]: 70%; inhibition of growth at 10 µM [37]: 83%; inhibition of growth at 10 µM [38]: 100%
COc1ccc(CN2c3ccccc3Sc3ccccc32)c(F)c1	47	40	73	7	89	57	58	55	65	89	100	57	88	48	100	88	92	100	99	47	inhibition of growth at 10 µM [5]: 100%; inhibition of growth at 10 µM [22]: 66%; inhibition of growth at 10 µM [23]: 50%; inhibition of growth at 10 µM [24]: 38%; inhibition of growth at 10 µM [25]: 90%; inhibition of growth at 10 µM [26]: 49%; inhibition of growth at 10 µM [27]: 93%; inhibition of growth at 10 µM [28]: 49%; inhibition of growth at 10 µM [29]: 77%; inhibition of growth at 10 µM [30]: 50%; inhibition of growth at 10 µM [31]: 96%; inhibition of growth at 10 µM [32]: 84%; inhibition of growth at 10 µM [33]: 100%; inhibition of growth at 10 µM [34]: 100%; inhibition of growth at 10 µM [35]: 70%; inhibition of growth at 10 µM [36]: 78%; inhibition of growth at 10 µM [37]: 74%; inhibition of growth at 10 µM [38]: 100%
COc1ccc(CN2c3ccccc3Sc3ccccc32)cc1F	60	76	80	63	95	58	78	57	84	100	100	54	50	61	55	100	88	100	83	50	inhibition of growth at 10 µM [5]: 100%; inhibition of growth at 10 µM [22]: 78%; inhibition of growth at 10 µM [23]: 57%; inhibition of growth at 10 µM [24]: 51%; inhibition of growth at 10 µM [25]: 76%; inhibition of growth at 10 µM [26]: 53%; inhibition of growth at 10 µM [27]: 78%; inhibition of growth at 10 µM [28]: 66%; inhibition of growth at 10 µM [29]: 84%; inhibition of growth at 10 µM [30]: 69%; inhibition of growth at 10 µM [31]: 100%; inhibition of growth at 10 µM [32]: 91%; inhibition of growth at 10 µM [33]: 100%; inhibition of growth at 10 µM [34]: 100%; inhibition of growth at 10 µM [35]: 79%; inhibition of growth at 10 µM [36]: 83%; inhibition of growth at 10 µM [37]: 84%; inhibition of growth at 10 µM [38]: 95%
COc1ccc(CN2c3ccccc3Oc3ccccc32)cc1O	61	43	58	4	87	64	57	44	72	82	81	68	69	43	73	9	86	84	50	60	inhibition of growth at 10 µM [22]: 62%; inhibition of growth at 10 µM [23]: 9%; inhibition of growth at 10 µM [24]: 45%; inhibition of growth at 10 µM [25]: 73%; inhibition of growth at 10 µM [26]: 36%; inhibition of growth at 10 µM [27]: 88%; inhibition of growth at 10 µM [28]: 65%; inhibition of growth at 10 µM [29]: 73%; inhibition of growth at 10 µM [30]: 66%; inhibition of growth at 10 µM [31]: 17%; inhibition of growth at 10 µM [32]: 86%; inhibition of growth at 10 µM [33]: 91%; inhibition of growth at 10 µM [34]: 84%; inhibition of growth at 10 µM [35]: 76%; inhibition of growth at 10 µM [36]: 69%; inhibition of growth at 10 µM [37]: 79%; inhibition of growth at 10 µM [38]: 100%

— ChEMBL document CHEMBL3862012, “Methylene versus carbonyl bridge in the structure of new tubulin polymerization inhibitors with tricyclic A-rings” (Bioorg Med Chem, 2016)
